This note sets out measurements from patent US9469616B2, “Cyclic compounds and methods of making and using the same” (Cellceutix Corporation, priority 2011, dated 2016).

Broadly, the HC50 is the concentration that lyses half of the red blood cells. The low end stands for more damage to red cells, the high end for less damage to red cells. The MIC is the lowest concentration that inhibits growth of the organism.

In brackets after ≈: the same amount, converted by molar mass. Several values for one entry are separate records, joined by “and”; a condition that tells them apart may be missing. Identical values can stand only once.

The subject of one series is human RBCs. In kind it is cell-based. The following applies: 1 h, pH 7.4. An excerpt:
(§1) A new series of aryl compounds was designed to evaluate the effect of charge and aromatic group hydrophobicity on the biological activity while still maintaining an amphiphilic topology. Four and six cationic charges were investigated, and three different central rings were used to tune the overall hydrophobicity: benzene, naphthalene, and phenylbenzene. The hydrophobicities of the aryl compounds were quantified using reversed-phase HPLC retention times (Rt). The antimicrobial activities (expressed as minimum inhibitory concentration (MIC)) of these compounds were tested against four pathogens, including both Gram-negative and Gram-positive bacteria, and their hemolysis (evaluated in terms of HC50, the lowest concentration that causes 50% hemolysis of red blood cells (RBCs)) was tested against human RBCs.
Cytotoxicity of the compounds is also evaluated in a hemolysis assay using human erythrocytes. Pooled whole human blood is centrifuged to separate the red blood cells (RBC). The isolated RBCs are rinsed and diluted in Tris-buffered saline (TBS buffer, pH 7.4) to obtain a 0.22% RBC stock suspension. 5 μL of a Compound stock solution is added to 45 μL of RBC suspension and incubated with shaking for 1 hour at 37° C. At the conclusion of the incubation time, samples are centrifuged and 30 μL of the supernatant is added to 100 μL of water. OD414 measurements are read for hemoglobin concentration. The bee venom peptide melittin is used as a positive control. EC50 values are determined as described above.
Cytotoxicity is also evaluated in a hemolysis assay using isolated human erythrocytes. Pooled whole human blood is centrifuged to separate the red blood cells (RBC). The isolated RBCs are rinsed and diluted in Tris-buffered saline (TBS buffer, pH 7.4) to obtain a 0.22% RBC stock suspension. […] OD405 measurements are read for hemoglobin concentration. […] EC50 values are determined using a four parameter logistic equation: Y=Bottom+(Top−Bottom)/(1+10^((Log EC50−X)*HillSlope)).

Another series relates to Staphylococcus aureus. Briefly: Antimicrobial activity (MIC) of aryl compounds (Table 2). In kind it is cell-based.
Excerpt: as §1

In the next series the test system is Escherichia coli. The series is described as above. In kind it is cell-based.
Excerpt: as §1

Series [1] relates to primary murine bone marrow-derived macrophages (BMDMs). In words: Cytokine and chemokine production in BMDM cells. In kind it is cell-based, mouse. An excerpt: The specific self-agonistic effect of Compound 116 along with its elevated agonistic effect with LPS stimulation in RAW 264.7 cells prompted evaluation of Compound 116 activity in primary murine bone marrow-derived macrophages (BMDMs). […] This observation is very similar to the immunomodulatory effect of Compound 116 in RAW 264.7 cells.
It was previously reported that the protective activity of a synthetic cationic peptide against bacterial infection was associated with the induction of chemokines such as CXCL1 from macrophages and/or monocytes. Thus, the ability of this nontoxic, nonpeptidic, antimicrobial compound to modulate both cytokine and chemokine production is encouraging for the design of synthetic molecules with multiple biological functions.

For the molecule `NCCCOc1cc(-c2ccc3ccc(-c4cc(OCCCN)c(OCCCN)c(OCCCN)c4)cc3c2)cc(OCCCN)c1OCCCN` [Compound 116], the HC50 in the series with human RBCs amounted to 656 µg/mL. In addition, the “Selectivity (HC50/MIC) S. aureus” value in the series on Staphylococcus aureus (HC50/MIC) was 200 and 209.6. Besides, the “selectivity, times higher than the selectivity of MSI-78” value with Staphylococcus aureus (S. aureus and E. coli, relative to MSI-78) is recorded as around 20 times. The MIC in the series with Staphylococcus aureus (Staphylococcus aureus, Table 2, read-out: MIC S. aureus) amounted to 3.13 µg/mL (≈ 4.35 µM); in the series with Escherichia coli (Escherichia coli, Table 2) it was 3.13 µg/mL (≈ 4.35 µM). In the series on Staphylococcus aureus (Table 2), the “MIC S. aureus” value is given as “≈ 3 μg/ml”. In addition, the “Selectivity (HC50/MIC) E. coli” value in the series with Escherichia coli (HC50/MIC) is 200 and 209.6. Also, the “MIC E. coli” value against Escherichia coli (Table 2) is “≈ 3 μg/ml”. The “LPS-induced TNF production” value in series [1] (5.0 μg/mL preincubation 1 hour, LPS 100 ng/mL 15 hours, FIG. 3A) is reported as “significantly increased”. In addition, the “LPS-induced IL-10 production” value in series [1] (5.0 μg/mL preincubation 1 hour, LPS 100 ng/mL 15 hours, FIG. 3B) was “inhibited”. In addition, the TNF production in series [1] (5.0 μg/mL, in the absence of LPS, FIG. 3A) amounted to 30 pg/mL. The “murine KC (chemokine CXCL1) levels” value in series [1] (5.0 μg/mL, relative to the DMSO control, FIG. 3C) is “significantly higher levels”.
